{"source": "patent US8895061B2", "about": "“Compositions comprising carisoprodol and methods of use thereof” (Meda Pharmaceuticals Inc., priority 2007, dated 2014)", "origin": "cited, not measured here", "key": {"[1]": {"conditions": "in vivo"}, "[2]": {"conditions": "for influence of polymorphic debrisoquine hydroxylation on elimination: poor metabolizers of debrisoquine, single oral doses"}}, "data": [{"smiles": "CCCC(C)(COC(N)=O)COC(=O)NC(C)C", "note": "(centres unmarked) [carisoprodol, N-isopropyl-2-methyl-2-propyl-1,3-propanediol dicarbamate]", "values": [{"measurement": "onset of action", "setting": "[1]", "result": "rapid"}, {"measurement": "influence of polymorphic debrisoquine hydroxylation on elimination", "setting": "[2]", "result": "did not influence the elimination"}, {"measurement": "mean serum clearance of carisoprodol", "setting": "[2]; poor metabolizers of mephenyloin compared with extensive metabolizers, single oral dose 700 mg carisoprodol", "result": "four times lower"}]}, {"smiles": "CCCC(C)(COC(N)=O)COC(N)=O", "note": "[meprobamate]", "values": [{"measurement": "influence of polymorphic debrisoquine hydroxylation on elimination", "setting": "[2]", "result": "did not influence the elimination"}, {"measurement": "mean serum clearance of meprobamate", "setting": "[2]; poor metabolizers of mephenyloin compared with extensive metabolizers, single oral dose 400 mg meprobamate", "result": "did not differ between the two groups"}]}]}
